What was measured:
P-gp = P-gp (Homo sapiens, UniProt P08183); conditions: 200 mg QD itraconazole for 5 days; reported in the literature; cited from earlier work
[1] = Drug-drug interaction study with itraconazole; format: in vivo, humans; conditions: with coadministration of itraconazole
Description: An open-label, fixed-sequence, 2-period drug-drug interaction (DDI) study was designed to evaluate the effect of multiple doses of a strong inhibitor of CYP3A4 and P-gp on the single-dose PK of etrumadenant in humans. Etrumadenant was supplied as 25 mg capsules. Itraconazole was used as the representative strong inhibitor of CYP3A4 and P-gp. It was supplied as 10 mg/mL oral solution, Sporanox® by Janssen Pharmaceuticals (or generic equivalent). Twenty (20) healthy, adult male and female (of non-childbearing potential) participants were enrolled. Screening of participants occurred within 28 days prior to the first dosing.
On Day 1 of Period 1, a single 150 mg dose of etrumadenant was orally administered under fasting conditions (i.e., at least 10 hours of fasting prior to dosing and at least 4 hours postdose). PK sampling for etrumadenant and its metabolites was taken predose and up to 120 hours postdose. There was a washout of 5 days between the etrumadenant dose in Period 1 and the first itraconazole dose in Period 2.
In Period 2, 200 mg itraconazole was orally administered twice a day (BID) on Day 1 and once a day (QD) for 9 consecutive days (on Days 2 through 10) with a single 150 mg dose of etrumadenant orally administered 1 hour after itraconazole dosing on Day 6. Itraconazole was administered under fasting conditions. On Day 6, participants fasted for at least 10 hours prior to and at least 4 hours post etrumadenant dosing. PK sampling for etrumadenant and its metabolites was taken predose and up to 120 hours after etrumadenant dosing. PK sampling for itraconazole and 1-hydroxy-itraconazole was collected on Days 5, 6, 7, 9, and 11.
Itraconazole was administered twice on the first day of Period 2 as a loading dose to accelerate CYP3A inhibition and the inhibition was then maintained by administering itraconazole 200 mg QD for 9 consecutive days. A 200 mg BID dose level is expected to provide similar inhibition to a 400 mg QD dose. Although itraconazole reaches steady state within approximately 15 days, it has been established that QD administration of 200 mg itraconazole for 3 to 5 days allows maximum CYP3A inhibition sufficient to detect a DDI. […] As such, administration of itraconazole for at least 4 days is considered sufficient in DDI studies as a CYP3A4 and P-gp inhibitor. To maintain the level of inhibition, itraconazole was administered throughout PK sampling of etrumadenant (i.e., through Day 10 of Period 2). In addition, the itraconazole oral solution was administered under fasting conditions to maximize bioavailability.
Participants were housed on Day −1 of Period 1, at the time indicated by the clinical research unit (CRU), until after the 120-hour blood draw and completion of study procedures in Period 2. Safety was monitored throughout the study by repeated clinical and laboratory evaluations. In this study, there were no discontinued participants. All participants who received at least one dose of study drug (including participants who terminated the study early) were asked to return to the CRU approximately 14 days after the last dose for follow-up procedures, and to determine if any adverse event (AE) had occurred since the last study visit. All adverse events reported in the study were mild and resolved without treatment.

P-gp, sequence (P08183 whole entry): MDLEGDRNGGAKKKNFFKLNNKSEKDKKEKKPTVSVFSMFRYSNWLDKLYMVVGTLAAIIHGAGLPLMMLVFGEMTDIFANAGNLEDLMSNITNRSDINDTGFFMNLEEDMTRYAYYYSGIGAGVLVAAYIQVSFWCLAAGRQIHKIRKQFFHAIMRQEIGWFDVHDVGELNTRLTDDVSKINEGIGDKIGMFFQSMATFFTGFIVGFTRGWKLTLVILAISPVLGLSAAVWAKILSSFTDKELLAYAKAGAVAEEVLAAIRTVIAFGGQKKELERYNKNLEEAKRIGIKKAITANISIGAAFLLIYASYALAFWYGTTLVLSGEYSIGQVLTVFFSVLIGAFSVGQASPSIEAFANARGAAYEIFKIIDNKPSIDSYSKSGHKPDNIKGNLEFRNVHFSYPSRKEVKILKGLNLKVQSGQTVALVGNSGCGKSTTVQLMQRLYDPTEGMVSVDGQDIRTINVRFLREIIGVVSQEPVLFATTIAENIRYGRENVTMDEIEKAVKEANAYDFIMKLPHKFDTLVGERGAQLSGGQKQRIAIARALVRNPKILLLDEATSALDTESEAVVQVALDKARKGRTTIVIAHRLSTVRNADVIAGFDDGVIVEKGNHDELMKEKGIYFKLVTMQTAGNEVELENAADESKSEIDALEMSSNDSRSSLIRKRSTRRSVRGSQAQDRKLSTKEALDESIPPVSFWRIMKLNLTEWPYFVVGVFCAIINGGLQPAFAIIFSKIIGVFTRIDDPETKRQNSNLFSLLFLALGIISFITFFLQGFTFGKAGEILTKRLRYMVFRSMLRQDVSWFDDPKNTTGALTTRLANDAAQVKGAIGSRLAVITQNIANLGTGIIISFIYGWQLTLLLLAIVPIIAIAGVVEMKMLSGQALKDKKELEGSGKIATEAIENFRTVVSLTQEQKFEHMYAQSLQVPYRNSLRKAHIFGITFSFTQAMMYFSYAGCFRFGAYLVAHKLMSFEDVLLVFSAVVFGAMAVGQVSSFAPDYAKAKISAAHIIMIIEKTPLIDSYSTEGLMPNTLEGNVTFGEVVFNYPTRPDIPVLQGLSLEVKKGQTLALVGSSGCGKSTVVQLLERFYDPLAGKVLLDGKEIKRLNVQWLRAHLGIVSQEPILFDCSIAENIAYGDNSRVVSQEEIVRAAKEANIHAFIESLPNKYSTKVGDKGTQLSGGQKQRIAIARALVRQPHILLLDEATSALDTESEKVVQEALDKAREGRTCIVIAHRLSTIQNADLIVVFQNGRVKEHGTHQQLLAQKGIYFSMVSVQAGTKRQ

decrease in metabolite-to-parent ratio MP AUC0-24 [1]	decrease in metabolite-to-parent ratio MP Cmax [1] [%]	Compound	increase of oral digoxin AUC (P-gp)
		C[C@H]1O[C@@H](O[C@H]2[C@@H](O)C[C@H](O[C@H]3[C@@H](O)C[C@H](O[C@H]4CC[C@@]5(C)[C@H](CC[C@@H]6[C@@H]5C[C@@H](O)[C@]5(C)[C@@H](C7=CC(=O)OC7)CC[C@]65O)C4)O[C@@H]3C)O[C@@H]2C)C[C@H](O)[C@@H]1O [digoxin]	approximately 1.7 fold
approximately 87%	~90	Cc1c(C#N)cccc1-c1cc(-c2c[nH]nn2)nc(N)n1 [N-dealkylated etrumadenant]	

Source: patent publication US20260115190A1, “DISPERSIONS OF ETRUMADENANT” (Arcus Biosciences, Inc., priority 2022, published 2026)
